Measurements reported in patent US4908452A, “Process for preparing nitriles” (Merck & Co., Inc., priority 1987, dated 1990).

Tested on: Factor XIIIa
Test: Factor XIIIa inhibitor assay (14C-putrescine incorporation into N,N-dimethyl-casein)
Format: biochemical, human
Procedure: The Factor XIIIa inhibitor activity may be determined by an assay described in Methods in Enzymology, Vol. 45, Ch 15, pages 177-191 (1976) and using Factor XIII isolated from human plasma. Briefly, the assay is carried out by adding a substrate mixture of ^14 C-putrescine and N,N-dimethyl-casein to an Factor XIII assay mixture previously prepared by adding thrombin and dithiothreitol to Factor XIII in glycerol/water and tris(hydroxymethyl)aminomethane hydrochloride and then adding calcium ions, thereafter, incubating at 37° for 20 minutes, withdrawing samples to a filter disk, precipitating the casein with trichloracetic acid and then counting to determine the extent of incorporation of inhibitor of ^14 C-putrescine in casein. The result for 3-(1-oxo-4,7-nonadienyl)-oxiranecarbonitrile was 60 percent inhibition at 3 mM.

Structure (SMILES): C/C=C/C/C=C/CCC(=O)[C@H]1O[C@H]1C#N [3-(1-oxo-4,7-nonadienyl)oxirane-carbonitrile]
- percent inhibition of Factor XIIIa (at 3 mM, Factor XIII isolated from human plasma, 37° for 20 minutes): 60%
- inhibitory activity against Factor XIIIa (statement in words) (plasma transglutaminase enzyme): inhibitory activity against Factor XIIIa
